The values that follow come from article PMC12042267, “Expanding the Family of Monosubstituted 15-Membered Pyridine-Based Macrocyclic Ligands for Mn(II) Complexation in the Context of MRI” (Inorganic Chemistry, 2025).

A short description of data set [1]: Stability constants of Mn(II) complexes by pH-potentiometry, pMn and species distribution. It counts as physicochemical. As to conditions: species distribution, [Mn(II)] = [L] = 1.5 mM. The protocol: Metal stock solutions were prepared from the highest analytical grade chemicals, and their concentration was determined by complexometric titration with standardized Na2H2EDTA, using xylenol orange indicator in the presence of urotropine buffer (ZnCl2 and MnCl2); Eriochrome black T indicator in the presence of ammonium acetate buffer (CaCl2) or murexide indicator in ammonium solution (CuCl2). The concentration of the ligand stock solutions was determined by pH-potentiometric titrations (the difference between two consecutive inflection points of the ligand titration curve corresponds to two (L2) or one (L3) ligand equivalents). To determine the protonation constants of the ligand and stability constants of the metal complexes with selected divalent metal ions, pH-potentiometric titrations were carried out with 0.1 M NaOH at 2 mM ligand concentration, in the absence (for ligand protonation constants) or in the presence of one equivalent of metal ion (for stability constants). During the titration, the waiting time was 2 min between successive points (V0 = 5 mL). The temperature (25.0 ± 0.1 °C) was controlled by a circulating water bath. The ionic strength was set to I = 0.15 M NaCl. All titrations were performed under a nitrogen atmosphere to avoid the effect of CO2. Titrations were carried out in the pH range from 1.8 (L3) or 2.0 (L2) (after the addition of 1 M HCl solution to the starting ligand solution in the titration cell) to pH 11 (or until precipitation of the metal hydroxide). All pH-potentiometric titrations were performed using a 785 DMP Titrino titration workstation with a combined electrode (Metrohm). The p[H] (p[H] = −log[H+], concentration in molarity) was measured in each titration with a combined pH glass electrode (Metrohm) filled with 3 M KCl. The electrode was calibrated in hydrogen ion concentration by titration of HCl with KOH in 0.1 M electrolyte solution.[37] A plot of potential versus p[H] allows determination of the electrode standard potential (E°) and the slope factor (f).
The protonation constants of the ligand (log Ki^H) are defined as follows [drawing 1] where i = 1, 2, ··· and [Hi–1L] and [H^+] are the equilibrium concentrations of the ligand (i = 1), its protonated forms (i = 2, ···), and the hydrogen ion. The stability (KML) and the protonation (KMHiL) constants for the metal complexes are defined as follows [drawing 2] [drawing 3] For the calculations of the equilibrium constants, the HYPERQUAD program was used.[38] The number of fitted data pairs was between 190 and 240. The ionic product of water at 25 °C and 0.1 M ionic strength is pKw = 13.77.[39] Fixed values were used for pKw, ligand acidity constants, and total concentrations of metal, ligand, and acid. All values and errors (one standard deviation) reported are at least the average of two independent experiments.
To obtain further information about the impact of a given pendant arm, it is interesting to calculate pMn values (pMn = −log[Mn(II)]free at pH 7.4, cMn = clig= 10^–5 M) which provide a more direct comparison of MnL stabilities, independently of differences in protonation constants (Table 4). […] Nevertheless, the too large, 15-membered macrocyclic cavity combined with a lower number of pendant arms provide ca. 2 orders of magnitude lower stability for Mn(II) complexation as compared to the 12-membered pyclen derivatives (Table 4).

Data set [2] can be described thus: 1H relaxivity (relaxometry, NMRD profiles). It counts as physicochemical. The conditions noted are these: for r1 (relaxivity): 20 MHz, 0.47 T. The protocol: At 60 MHz, ^1H longitudinal (T1) and transverse (T2) relaxation times were measured with a Bruker Minispec MQ-60 NMR analyzer. The temperature was set to 25.0 °C and controlled with a circulating water bath. T1 and T2 values were determined, respectively, by using the inversion recovery method (180−τ–90°) and the Carl–Purcell–Meiboom–Gill (CPMG) spin–echo pulse sequence. […]
^1H NMRD profiles on aqueous solutions of MnL2 (cMn2+ = 0.98 mM; pH = 7.22) and MnL3 (cMn2+ = 0.96 mM; pH = 7.20) were recorded at 25 and 37 °C on a SMARTracer Fast Field Cycling NMR relaxometer (Stelar; 0.00024–0.24 T, 0.01–10 MHz ^1H Larmor frequency) and a WP80 NMR electromagnet adapted to variable-field measurements (Bruker; 0.47–1.88 T, 20–80 MHz ^1H Larmor frequency). The temperature was maintained by a gas flow and monitored by a VTC91 temperature control unit based on previous calibration with a Pt resistance temperature probe.

With `O.[Mn+2].c1ccc(CN2CCOCCOCCNCc3cccc(n3)C2)nc1` [MnL2], the “pH above which full complex formation is achieved” value in data set [1] is more than 6. Besides, in data set [2] (1.41 T and 25 °C, pH 7 to 11), the “relaxivity (constant between pH 7 and 11)” value worked out at 2.62 mM^–1 s^–1. Also, the “r1 (relaxivity)” value in data set [2] (25 °C) is recorded as approximately 2.5 mM^–1 s^–1; in data set [2] (25 °C, listed as [Mn(L2)(H2O)]^+) it was 2.49 mM^–1 s^–1; in data set [2] (37 °C), 1.98 mM^–1 s^–1.

For `O.[Mn+2].c1cc2nc(c1)CN(Cc1nc3ccccc3[nH]1)CCOCCOCCNC2` [MnL3], the “pH above which full complex formation is achieved” value in data set [1] is reported as more than 6. The “r1 (relaxivity)” value in data set [2] (25 °C) is listed as approximately 2.5 mM^–1 s^–1; in data set [2] (25 °C, listed as [Mn(L3)(H2O)]^+), 2.77 mM^–1 s^–1; in data set [2] (37 °C), 2.24 mM^–1 s^–1.
